Data on eight compounds can be found in PMC9405596, “Evaluation of the Anti-Leishmania mexicana and -Trypanosoma brucei Activity and Mode of Action of 4,4′-(Arylmethylene)bis(3-methyl-1-phenyl-1H-pyrazol-5-ol)” (Biomedicines, 2022).

What is called IC50 is the midpoint of a concentration-inhibition curve. The CC50 is the concentration giving 50% cytotoxicity. As usually defined, the melting point is the temperature of the solid-liquid transition. The inhibition is how much of the control response was suppressed.

The subject of data set [1] is L. mexicana promastigotes. Briefly: MTT viability assay against L. mexicana promastigotes. It is filed as cell-based, Leishmania mexicana. The settings on record: for L. mexicana Promastigote SI vs. Hepatocytes: CC50 HepG2 hepatocytes/IC50 L. mexicana; for L. mexicana Promastigote SI vs. Macrophage: CC50 RAW macrophages/IC50 L. mexicana; for IC50: Leishmania mexicana, 48 h, read-out: L. mexicana Promastigote IC50, promastigotes, 48 h, MTT. The protocol: The leishmanicidal activity against promastigotes from L. mexicana was evaluated by measuring parasites’ mitochondrial activity using the MTT (Thiazolyl Blue Tetrazolium Bromide) colorimetric assay as described previously. […] The medium was renewed every third day and subcultures were prepared when parasite density reached 1 × 10^7 parasites/mL. A Neubauer chamber was used to determine parasite density.
Background: Formazan colour is commonly taken as a measure of viable cells.

A short description of data set [2]: MTT cytotoxicity assay, HepG2. Type of data set: cell-based. The settings on record: human, HepG2 cells, HepG2, 72 h, read-out: CC50 HepG2 Hepatocytes. The protocol:
(§1) Murine macrophages (cell line RAW 264.7, ATCC® TIB-71™) were grown in Dulbecco’s Modified Eagle Medium (DMEM) (Gibco, Invitrogen, Waltham, MA, USA) supplemented with 10% fetal bovine serum (FBS) (Eurobio) and 100 IU/mL penicillin + 100 µg/mL streptomycin (Gibco), at 37 °C, in an atmosphere containing 5% CO2. Human hepatocyte cell line HepG2 (ATCC® HB-8065™) was grown in MEM (Gibco, Invitrogen) supplemented with 10% FBS (Gibco, Invitrogen), 1% NEAA (Gibco, Invitrogen), and 1% L-glutamine (Gibco, Invitrogen). The medium was renewed twice a week. For both cell lines, the viability was determined using the MTT assay as described before for leishmanicidal activity assessment, with some variations. Here, 5 × 10^4 cells/well in a final volume of 100 µL were seeded into a 96-well plate, in triplicate for RAW macrophages and in duplicate for HepG2. Saponin (2.4 mg/mL) and untreated cells were used as positive control and negative control, respectively. Compounds were dissolved in DMSO to obtain different serial concentrations (1.56 to 800 µM) for RAW macrophages and 100–0.001 µM for HepG2. The final concentration of DMSO in each well was 0.5%. After exposure to compounds for 48 h and 72 h for RAW and HepG2 cells, respectively, 10 µL/well of MTT (5 mg/mL in PBS) was added, incubated at 37 °C for 2 h in darkness, and cells were pelleted via centrifugation at 4400 rpm for 10 min. The medium was removed, and 100 µL/well of DMSO was added to dissolve formazan. The absorbance at 570 and 630 nm was recorded following the same procedure as with parasites.

The test system of data set [3] is bloodstream form of T. b. brucei (strain 427). Briefly: Bioluminescence viability assay against bloodstream T. b. brucei expressing luciferase. To be noted: for activity at 10 µM / inhibition at 10 µM: Trypanosoma brucei, 24 h; for activity at 10 µM: read-out: T. brucei bloodstream % Growth (10 µM), 10 µM, 24 h; for inhibition at 10 µM: read-out: T. brucei growth inhibition at 10 µM; for anti-T. brucei activity in preliminary screening, in words: 10 µM.

Data set [4] is described as follows: MTT cytotoxicity assay, murine macrophages. Type of data set: cell-based. The settings on record: mouse, RAW 264.7 macrophage cells, RAW 264.7, 48 h. On the procedure: as §1

`Cc1nn(-c2ccccc2)c(O)c1C(c1ccccc1)c1c(C)nn(-c2ccccc2)c1O` [Compound 2b] registered a melting point of 159.5 to 161.1 °C. In data set [1], the “L. mexicana Promastigote SI vs. Hepatocytes” value is recorded as above 3.1, the “L. mexicana Promastigote SI vs. Macrophage” value worked out at 6.4 and the IC50 came to 32 ± 7 µM. Also, the CC50 at 72 h in data set [2] was above 100 µM. In addition, in data set [3], the activity at 10 µM was found to be 74 ± 7%. The compound also had a CC50 at 48 h in data set [4] of 206 ± 28 µM.

Regarding `Cc1nn(-c2ccccc2)c(O)c1C(c1ccccc1O)c1c(C)nn(-c2ccccc2)c1O` [Compound 2a], the melting point lay within 219.5 to 220.6 °C. Also, in data set [1], the “L. mexicana Promastigote SI vs. Macrophage” value turned out to be 4.3 and the IC50 came to 12 ± 3 µM. Moreover, in data set [2], the CC50 at 72 h is above 100 µM. In data set [3], the activity at 10 µM turned out to be 77 ± 5% and the inhibition at 10 µM stood at 23%. This compound came in with a CC50 at 48 h in data set [4] of 51 ± 6 µM.

In the case of `COc1cc(C(c2c(C)nn(-c3ccccc3)c2O)c2c(C)nn(-c3ccccc3)c2O)cc(OC)c1O` [Compound 2m], the melting point lay within 208 to 209.5 °C. In data set [1], the “L. mexicana Promastigote SI vs. Hepatocytes” value is above 4.3, the “L. mexicana Promastigote SI vs. Macrophage” value is on record as 12.4 and the IC50 was 23 ± 5 µM. In addition, the half-maximal cytotoxic concentration (CC50) at 72 h in data set [2] was above 100 µM. Moreover, in data set [3], the “anti-T. brucei activity in preliminary screening, in words” value (shortened to “anti-T. brucei activity”) was “inactive” and the activity at 10 µM is above 100%. The compound also came in with a CC50 at 48 h in data set [4] of 286 ± 51 µM.

Compound `Cc1nn(-c2ccccc2)c(O)c1C(c1ccccc1[N+](=O)[O-])c1c(C)nn(-c2ccccc2)c1O` [Compound 2c] registered a melting point of 210 to 211 °C. Moreover, in data set [1], the “L. mexicana Promastigote SI vs. Hepatocytes” value amounted to 1.5, the “L. mexicana Promastigote SI vs. Macrophage” value worked out at 3.1 and the 50% inhibitory concentration (IC50) came out at 17 ± 8 µM. For the same compound, in data set [2], the 50% cytotoxic concentration (CC50) at 72 h stood at 26 ± 16 µM. Besides, in data set [3], the activity at 10 µM is 68 ± 5%. In addition, in data set [4], the 50% cytotoxic concentration (CC50) at 48 h worked out at 53 ± 6 µM.

With `Cc1nn(-c2ccccc2)c(O)c1C(c1ccc(OC(F)(F)F)cc1)c1c(C)nn(-c2ccccc2)c1O` [Compound 2s], the melting point is 174.5 to 176 °C. Also, in data set [1], the “L. mexicana Promastigote SI vs. Hepatocytes” value was found to be 8.7 and the “L. mexicana Promastigote SI vs. Macrophage” value is 14.3. Further, the half-maximal cytotoxic concentration (CC50) at 72 h in data set [2] came out at 26 ± 15 µM. Moreover, in data set [3], the “anti-T. brucei activity” value was “inactive” and the activity at 10 µM is above 100%. For the same compound, in data set [4], the cytotoxic concentration (CC50) at 48 h worked out at 49 ± 15 µM.

In the case of `Cc1nn(-c2ccccc2)c(O)c1C(c1cc(O)ccc1[N+](=O)[O-])c1c(C)nn(-c2ccccc2)c1O` [Compound 2h], the melting point is 205 to 207 °C (dec.). In addition, in data set [1], the “L. mexicana Promastigote SI vs. Hepatocytes” value was above 4.8, the “L. mexicana Promastigote SI vs. Macrophage” value is reported as 5.1 and the half-inhibitory concentration (IC50) is 21 ± 4 µM. In addition, the CC50 at 72 h in data set [2] is above 100 µM. The activity at 10 µM in data set [3] is 89 ± 3%. In data set [4], this compound gave a CC50 at 48 h of 108 ± 22 µM.

Turning to `CSc1ccc(C(c2c(C)nn(-c3ccccc3)c2O)c2c(C)nn(-c3ccccc3)c2O)cc1` [Compound 2u], the melting point lay in the range of 209.1 to 211.3 °C. Besides, in data set [1], the “L. mexicana Promastigote SI vs. Hepatocytes” value came to 0.7, the “L. mexicana Promastigote SI vs. Macrophage” value came to 3.2 and the IC50 worked out at 30 ± 10 µM. In data set [2], the CC50 at 72 h amounted to 21 ± 10 µM. In data set [3], the “anti-T. brucei activity” value is “inactive” and the activity at 10 µM was above 100%. In addition, the CC50 at 48 h in data set [4] worked out at 96 ± 27 µM.

In turn, `Cc1nn(-c2ccccc2)c(O)c1C(c1cccc(O)c1)c1c(C)nn(-c2ccccc2)c1O` [Compound 2l] registered a melting point of 165 to 167 °C. For the same compound, in data set [1], the “L. mexicana Promastigote SI vs. Hepatocytes” value is above 5.6, the “L. mexicana Promastigote SI vs. Macrophage” value came to 6 and the half-maximal inhibitory concentration (IC50) turned out to be 18 ± 5 µM. For the same compound, the 50% cytotoxic concentration (CC50) at 72 h in data set [2] was above 100 µM. In addition, in data set [3], the “anti-T. brucei activity” value is “inactive”; the activity at 10 µM is above 100%; the inhibition at 10 µM came out at 0%. The compound also returned a CC50 at 48 h in data set [4] of 108 ± 33 µM.
